Measurements: patent publication US20240294541A1, “COMPOUNDS CONSTITUTING C20-MODIFIED SALINOMYCIN DERIVATIVES, A METHOD FOR OBTAINING THE SAME, A COMPOSITION CONTAINING THE SAME AND A USE OF SAID COMPOUNDS” (FILECLO SPOLKA Z OGRANICZONA ODPOWIEDZIALNOSCIA, priority 2021, published 2024)
Where a name gives a salt, the structure may show the parent alone. Read-outs that look alike come from different tables or passages of the source.

Key:
Type in all cases: cell-based
[1] = test system: NCI-H23 (human lung cancer); assay: In vitro cytotoxicity, SRB assay, NCI-H23; settings: for IC50: Homo sapiens, NCI-H23, 72 h with compound, SRB, n/a = non-active compound, read-out: NCI-H23 IC50; for NCI-H23 SI: selectivity coefficient vs normal BALB/3T3 cells
[2] = test system: PFSK-1 (malignant primitive neuroectodermal tumour); assay: In vitro cytotoxicity, SRB assay, PFSK-1; settings: for IC50: Homo sapiens, PFSK-1, 72 h with compound, SRB, n/a = non-active compound, read-out: PFSK-1 IC50; for PFSK-1 SI: selectivity coefficient vs normal BALB/3T3 cells
[3] = test system: A2780 (human ovarian cancer); assay: In vitro cytotoxicity, SRB assay, A2780; settings: for IC50: Homo sapiens, A2780, 72 h with compound, SRB, n/a = non-active compound, read-out: A2780 IC50; for A2780 SI: selectivity coefficient vs normal BALB/3T3 cells
[4] = test system: A2780Cis (cisplatin-resistant human ovarian cancer); assay: In vitro cytotoxicity, SRB assay, A2780Cis; settings: for IC50: Homo sapiens, A2780cis
A375 (human melanoma) = assay: In vitro cytotoxicity, SRB assay, A375; settings: for IC50: Homo sapiens, A-375, 72 h with compound, SRB, n/a = non-active compound, read-out: A375 IC50; for A375 SI: selectivity coefficient vs normal BALB/3T3 cells
Hs294T (human melanoma) = assay: cells; settings: for IC50: Homo sapiens, Hs 294T, 72 h with compound, SRB, n/a = non-active compound, read-out: Hs294T IC50; for Hs294T SI: selectivity coefficient vs normal BALB/3T3 cells
[5] = test system: PLC/PRF/5 (human liver cancer); assay: cells; settings: for IC50: Homo sapiens, PLC-PRF-5, 72 h with compound, SRB, n/a = non-active compound, read-out: PLC/PRF/5 IC50; for PLC/PRF/5 SI: selectivity coefficient vs normal BALB/3T3 cells
[6] = test system: SNU-16 (human gastric cancer); assay: cells; settings: for IC50: Homo sapiens, SNU-16, 72 h with compound, MTT, n/a = non-active compound, read-out: SNU-16 IC50; for SNU-16 SI: selectivity coefficient vs normal BALB/3T3 cells
[7] = test system: KG-1 (human acute myeloid leukaemia); assay: In vitro cytotoxicity, MTT assay, KG-1; settings: for IC50: Homo sapiens, 72 h with compound, MTT, n/a = non-active compound; for KG-1 SI: selectivity coefficient vs normal BALB/3T3 cells
[8] = test system: MIA PaCa-2 (human pancreatic cancer); assay: cells; settings: for IC50: Homo sapiens, MIA PaCa-2, 72 h with compound, SRB, n/a = non-active compound, read-out: MIA PaCa-2 IC50; for MIA PaCa-2 SI: selectivity coefficient vs normal BALB/3T3 cells
[9] = test system: BALB/3T3 (normal mouse fibroblasts); assay: In vitro cytotoxicity, SRB assay, normal BALB/3T3 fibroblasts
[10] = test system: MV-4-11 (human biphenotypic leukaemia); assay: In vitro cytotoxicity, MTT assay, MV-4-11
[11] = 72 h, read-out: A2780Cis IC50 (nM)
[12] = Mus musculus, BALB/3T3, normal cells, 72 h with compound, SRB, n/a = non-active compound, read-out: BALB/3T3 IC50

Row | Compound | IC50 [1] [nM] | NCI-H23 SI [1] | IC50 [2] [nM] | PFSK-1 SI [2] | IC50 [3] [nM] | A2780 SI [3] | A2780Cis RI [4] | A2780Cis SI [4] | IC50 [4, 11] [nM] | IC50 (A375 (human melanoma)) [nM] | A375 SI (A375 (human melanoma)) | IC50 [5] [nM] | PLC/PRF/5 SI [5] | IC50 [6] [nM] | SNU-16 SI [6] | IC50 [7] [nM] | KG-1 SI [7] | IC50 [8] [nM] | MIA PaCa-2 SI [8] | IC50 [9, 12] [nM] | also measured
1 | CC[C@@H](C(=O)[C@@H](C)[C@@H](O)[C@H](C)[C@@H]1O[C@@H]([C@@H](CC)C(=O)O)CC[C@@H]1C)[C@H]1O[C@]2(C=C[C@@H](NC(=O)NCc3ccccc3)[C@]3(CC[C@@](C)([C@H]4CC[C@](O)(CC)[C@H](C)O4)O3)O2)[C@H](C)C[C@@H]1C [FLC-00337-1] | 445 | 0.3 | 19.4 | 6.3 | 3.1 | 39.2 | 0.6 | 61.5 | 1.98 | 296 | 0.4 | 41.4 | 2.9 | 21.4 | 5.7 | 122 | 1.0 | 56 | 2.2 | 122 | IC50 (Hs294T (human melanoma)): 549 nM; Hs294T SI (Hs294T (human melanoma)): 0.2
2 | CC[C@@H](C(=O)[C@@H](C)[C@@H](O)[C@H](C)[C@@H]1O[C@@H]([C@@H](CC)C(=O)O)CC[C@@H]1C)[C@H]1O[C@]2(C=C[C@@H](NC(=O)NCCCl)[C@]3(CC[C@@](C)([C@H]4CC[C@](O)(CC)[C@H](C)O4)O3)O2)[C@H](C)C[C@@H]1C [FLC-00338-1 Na] | 620 | 0.3 | 53.1 | 3.1 | 5.4 | 30.4 | 1.9 | 16.2 | 10.1 | 354 | 0.5 | 61.6 | 2.7 | 39.2 | 4.2 | 222 | 0.7 | 58.6 | 2.8 | 164 | IC50 (Hs294T (human melanoma)): 1870 nM; Hs294T SI (Hs294T (human melanoma)): 0.1
3 | CCNC(=S)N[C@@H]1C=C[C@]2(O[C@H]([C@@H](CC)C(=O)[C@@H](C)[C@@H](O)[C@H](C)[C@@H]3O[C@@H]([C@@H](CC)C(=O)O)CC[C@@H]3C)[C@@H](C)C[C@H]2C)O[C@@]12CC[C@@](C)([C@H]1CC[C@](O)(CC)[C@H](C)O1)O2 [FLC-00339-1 Na] | 4.38 | 12.4 | 16.1 | 3.4 | 2.27 | 24.0 | 0.9 | 26.7 | 2.04 | 26.9 | 2.0 | 10.8 | 5.0 | 17.5 | 3.1 | 11.1 | 4.9 | 17.1 | 3.2 | 54.5 | 
4 | CC[C@@H](C(=O)[C@@H](C)[C@@H](O)[C@H](C)[C@@H]1O[C@@H]([C@@H](CC)C(=O)O)CC[C@@H]1C)[C@H]1O[C@]2(C=C[C@@H](NC(=S)Nc3ccc(F)cc3)[C@]3(CC[C@@](C)([C@H]4CC[C@](O)(CC)[C@H](C)O4)O3)O2)[C@H](C)C[C@@H]1C [FLC-00340-1 Na] | 8.64 | 6.7 | 9.37 | 6.2 | 2.41 | 24.0 | 0.8 | 31.4 | 1.84 | 31.2 | 1.8 | 19.1 | 3.0 | 16.7 | 3.5 | 24.4 | 2.4 | 33.9 | 1.7 | 57.7 | 
5 | CC[C@@H](C(=O)[C@@H](C)[C@@H](O)[C@H](C)[C@@H]1O[C@@H]([C@@H](CC)C(=O)O)CC[C@@H]1C)[C@H]1O[C@]2(C=C[C@@H](NC(=O)Nc3cc(C(F)(F)F)cc(C(F)(F)F)c3)[C@]3(CC[C@@](C)([C@H]4CC[C@](O)(CC)[C@H](C)O4)O3)O2)[C@H](C)C[C@@H]1C [FLC-00344-1 Na] | 285 | 3.7 | 112 | 9.5 | 21 | 50.5 | 1.2 | 43.8 | 24.3 | 2310 | 0.5 | 1290 | 0.8 | 106 | 10.0 | 286 | 3.7 | 383 | 2.8 | 1060 | IC50 (Hs294T (human melanoma)): 2570 nM; Hs294T SI (Hs294T (human melanoma)): 0.4
6 | CC[C@@H](C(=O)[C@@H](C)[C@@H](O)[C@H](C)[C@@H]1O[C@@H]([C@@H](CC)C(=O)O)CC[C@@H]1C)[C@H]1O[C@]2(C=C[C@@H](NC(=S)Nc3cc(C(F)(F)F)cc(C(F)(F)F)c3)[C@]3(CC[C@@](C)([C@H]4CC[C@](O)(CC)[C@H](C)O4)O3)O2)[C@H](C)C[C@@H]1C [FLC-00348-1] | 972 | 2.9 | 379 | 7.4 | 57 | 49.6 | 0.8 | 60.6 | 46.6 | 2590 | 1.1 | 1150 | 2.5 | 537 | 5.3 | 188 | 15.0 | 2320 | 1.2 | 2830 | IC50 (Hs294T (human melanoma)): 3320 nM; Hs294T SI (Hs294T (human melanoma)): 0.9
7 | CC[C@@H](C(=O)[C@@H](C)[C@@H](O)[C@H](C)[C@@H]1O[C@@H]([C@@H](CC)C(=O)O)CC[C@@H]1C)[C@H]1O[C@]2(C=C[C@@H](NC(=O)NS(=O)(=O)c3ccc(C)cc3)[C@]3(CC[C@@](C)([C@H]4CC[C@](O)(CC)[C@H](C)O4)O3)O2)[C@H](C)C[C@@H]1C [FLC-00364-1] | 4790 |  | 5600 |  | 2600 |  | 0.4 |  | 1130 |  |  | 4480 |  | 5380 |  | 3700 |  |  |  |  | 
8 | CC[C@@H](C(=O)[C@@H](C)[C@@H](O)[C@H](C)[C@@H]1O[C@@H]([C@@H](CC)C(=O)O)CC[C@@H]1C)[C@H]1O[C@]2(C=C[C@@H](NC(=O)NS(=O)(=O)c3ccccc3)[C@]3(CC[C@@](C)([C@H]4CC[C@](O)(CC)[C@H](C)O4)O3)O2)[C@H](C)C[C@@H]1C [FLC-00365-1] |  |  | 6200 |  | 3480 |  | 0.9 |  | 3020 |  |  |  |  | 5830 |  | 8000 |  |  |  |  | 
9 | CC[C@@H](C(=O)[C@@H](C)[C@@H](O)[C@H](C)[C@@H]1O[C@@H]([C@@H](CC)C(=O)O)CC[C@@H]1C)[C@H]1O[C@]2(C=C[C@@H](NC(=O)NC(=O)C(Cl)(Cl)Cl)[C@]3(CC[C@@](C)([C@H]4CC[C@](O)(CC)[C@H](C)O4)O3)O2)[C@H](C)C[C@@H]1C [FLC-00367-1] | 682 | 7.4 | 689 | 7.4 | 322 | 15.7 | 0.8 | 19.1 | 266 | 5920 | 0.9 | 940 | 5.4 | 368 | 13.8 | 666 | 7.6 | 3220 | 1.6 | 5080 | 
10 | CCOC(=O)C(=O)N[C@@H]1C=C[C@]2(O[C@H]([C@@H](CC)C(=O)[C@@H](C)[C@@H](O)[C@H](C)[C@@H]3O[C@@H]([C@@H](CC)C(=O)O)CC[C@@H]3C)[C@@H](C)C[C@H]2C)O[C@@]12CC[C@@](C)([C@H]1CC[C@](O)(CC)[C@H](C)O1)O2 [FLC-00373-1, C20-aminosalinomycin oxalate derivative] |  |  |  |  | 6690 |  |  |  |  |  |  |  |  |  |  | 9060 |  |  |  |  | 
11 | CC[C@@H](C(=O)[C@@H](C)[C@@H](O)[C@H](C)[C@@H]1O[C@@H]([C@@H](CC)C(=O)O)CC[C@@H]1C)[C@H]1O[C@]2(C=C[C@@H](NC(=O)OC3CCOCC3)[C@]3(CC[C@@](C)([C@H]4CC[C@](O)(CC)[C@H](C)O4)O3)O2)[C@H](C)C[C@@H]1C [FLC-00580-1•Na] |  |  |  |  |  |  |  |  |  |  |  |  |  |  |  |  |  |  |  |  | SI A2780Cis [4]: 94.4; IC50 ([4]; read-out: IC50 (nM) A2780Cis): 2.24 nM; IC50 ([9]; Table 5, BALB/3T3 normal mouse fibroblasts, read-out: IC50 (nM) BALB3T3 normal cells): 211 nM; SI MV4-11 [10]: 32.5; IC50 ([10]; Homo sapiens, MV4-11, read-out: IC50 (nM) MV4-11): 6.51 nM
